Test results taken from US8785499B2 (priority 2009, dated 2014).

Tests used:
[1] = target: ecNadD (Escherichia coli (strain K12), UniProt P0A752); assay: biochemical; assay type: biochemical
[2] = target: baNadD (Bacillus anthracis, UniProt C3L5T6); assay: biochemical; assay type: biochemical
Sequence of baNadD (C3L5T6 whole entry, looked up): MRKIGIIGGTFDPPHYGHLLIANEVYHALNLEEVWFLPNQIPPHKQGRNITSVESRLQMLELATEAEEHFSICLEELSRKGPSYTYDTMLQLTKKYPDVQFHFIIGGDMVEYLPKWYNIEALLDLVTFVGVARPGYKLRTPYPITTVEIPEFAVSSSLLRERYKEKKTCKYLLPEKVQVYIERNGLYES

Compound	[…]. coli [1]	[…]. anthracis [2]	other results
COc1cc(/C=N/c2ccc3[nH]c(=O)[nH]c3c2)ccc1OC(C)=O [compound 012]	30%	0%	–
N=C(N)NNC(=S)Nc1ccc(Cl)cc1 [compound 013]	30%	0%	–
Cc1cc(Nc2cccc(C(=O)O)c2)n2ncnc2n1 [compound 014]	30%	0%	–
O=C1Nc2ccccc2/C1=C/Nc1ccc(Br)cc1F [compound 015]	–	–	IC50 ([1]; IC50 ecNadD): 30 µM; inhibition at 100 µM ([1]; read-out: INHIBITION (%) E. coli): 29%; IC50 ([2]; IC50 baNadD): 16 µM; inhibition at 50 µM ([2]; read-out: INHIBITION (%) B. anthracis): 57%
O=C(O)c1ccc([N+](=O)[O-])cc1C(=O)Nc1ccc(Cl)cc1 [compound 016]	29%	75%	–
O=C(O)CCC(=O)NNC(=O)c1cccc(O)c1 [compound 017]	27%	0%	–
Nc1nnc(CCSc2cc(Cl)ccc2Cl)s1 [compound 018]	27%	0%	–
N#CC1=C(N)OC(c2cccs2)=C(C#N)C1c1cccs1 (stereo not shown) [compound 019]	26%	27%	–
O=C(Nc1ccc(NC(=O)c2cccs2)cc1)c1ccccc1 [compound 020]	26%	0%	–
NS(=O)(=O)c1ccc(N/C=C/C(=O)c2ccc(Cl)s2)cc1 [compound 021]	24%	79%	–
Nc1nc(-c2ccc(NC(=O)c3ccc(Cl)cc3)cc2)cs1 [compound 022]	24%	31%	–
Cc1c(NC(=O)CSS(=O)(=O)O)c(=O)n(-c2ccccc2)n1C [compound 023]	24%	34%	–
O=C(O)CCCCCN1C(=O)c2ccc(F)cc2C1=O [compound 024]	23%	0%	–
Cc1ccc(F)cc1NC(=O)CSCC(=O)O [compound 025]	23%	55%	–
O=c1[nH]c(SCc2nc3ccccc3[nH]2)nc2ccccc12 [compound 026]	23%	0%	–
O=C(O)c1cccc(NCN2C(=O)c3ccccc3C2=O)c1 [compound 027]	23%	0%	–
O=C(NNC(=O)c1ccco1)c1cccc(I)c1 [compound 028]	23%	7%	–
O=C(O)CCC(C(=O)O)N1C(=O)c2cc(Cl)c(Cl)cc2C1=O (stereo not shown) [compound 029]	22%	0%	–
O=C(O)c1ccc(Nc2nc(-c3ccc(Cl)cc3)cs2)cc1 [compound 030]	22%	28%	–

Compound	[…]. coli [1]	[…]. anthracis [2]	other results
O=C(O)c1nccnc1C(=O)Nc1ccc(Br)cc1 [compound 031]	21%	4%	–
COc1c(C)cc(Br)cc1C(=O)Nc1ccc(S(N)(=O)=O)cc1 [compound 032]	21%	8%	–
Nc1cc(NCCCCCC(=O)O)ccc1[N+](=O)[O-] [compound 034]	21%	1%	–
CC(=O)Nc1ccc(NS(=O)(=O)c2ccc(O)c(C(=O)O)c2)cc1 [compound 035]	20%	0%	–
O=C(Nc1ccccc1C(=O)O)c1ccc(Br)o1 [compound 036]	20%	0%	–
COc1cc(Br)cc(/C=C2/SC(=S)NC2=O)c1O [compound 037]	20%	0%	–
Oc1c(Cl)cc(Cl)cc1/C=N/c1nc[nH]n1 [compound 038]	20%	0%	–
Nc1nonc1C(=O)N/N=C/c1cc(Br)cc(Br)c1O [compound 040]	19%	20%	–
O=C(O)[C@@H]1CSC(c2ccc(Cl)cc2Cl)N1 (stereo partly shown) [compound 041]	19%	39%	–
Nc1ccc(NC(=O)c2cc(Cl)ccc2O)c(Cl)c1 [compound 043]	18%	2%	–
Oc1c(Br)cc(Cl)cc1/C=N/c1ccccn1 [compound 044]	17%	0%	–
CCOc1cc(/C=N/O)cc(I)c1O [compound 045]	17%	0%	–
Cc1ccc(OCC(=O)Nc2nnc[nH]2)c(Br)c1 [compound 046]	17%	71%	–
O=c1cc(O)c2sc(Nc3cccc(Cl)c3)nc2[nH]1 [compound 047]	17%	0%	–
NS(=O)(=O)c1ccc(CCNC(=O)c2cccc(Cl)c2)cc1 [compound 048]	16%	14%	–
O=C(/C=C/c1ccc2c(c1)OCO2)Nc1ncc([N+](=O)[O-])s1 [compound 049]	16%	10%	–
NS(=O)(=O)c1ccc(NC(=O)c2cc3cc(Br)ccc3oc2=O)cc1 [compound 050]	16%	38%	–
Nc1nonc1C(=O)NCCNS(=O)(=O)Cc1ccccc1 [compound 051]	16%	0%	–
